From ChEMBL document CHEMBL3608300, “Synthesis and anticancer activity of novel curcumin-quinolone hybrids” (Bioorg Med Chem Lett, 2015)
pIC50: −log10 of the molar value. Activity calls are given as the source filed them. The rule behind the calls is not given here.

What was measured:
[1] = tested on: SK-OV-3; assay: Cytotoxicity against human SKOV3 cells after 24 hrs by MTT assay; format: functional, cell-based; settings: SK-OV-3, 24 h
[2] = Cytotoxicity against human H460 cells after 24 hrs by MTT assay; format: functional, cell-based; settings: NCI-H460, 24 h
[3] = tested on: MCF7; assay: Cytotoxicity against human MCF7 cells after 24 hrs by MTT assay; format: functional, cell-based; settings: MCF7, 24 h
[4] = tested on: A549; assay: Cytotoxicity against human A549 cells after 24 hrs by MTT assay; format: functional, cell-based; settings: A549, 24 h
[5] = tested on: SK-OV-3; assay: Cytotoxicity against human SKOV3 cells up to 30 uM after 24 hrs by MTT assay; format: functional, cell-based
[6] = tested on: A549; assay: Cytotoxicity against human A549 cells up to 30 uM after 24 hrs by MTT assay; format: functional, cell-based
[7] = tested on: NCI-H460; assay: Cytotoxicity against human H460 cells up to 30 uM after 24 hrs by MTT assay; format: functional, cell-based
[8] = tested on: MCF7; assay: Cytotoxicity against human MCF7 cells up to 30 uM after 24 hrs by MTT assay; format: functional, cell-based
[9] = tested on: SK-OV-3; assay: Cytotoxicity against human SKOV3 cells up to 10 uM after 24 hrs by MTT assay; format: functional, cell-based
[10] = tested on: NCI-H460; assay: Cytotoxicity against human H460 cells up to 10 uM after 24 hrs by MTT assay; format: functional, cell-based
[11] = tested on: MCF7; assay: Cytotoxicity against human MCF7 cells up to 10 uM after 24 hrs by MTT assay; format: functional, cell-based
[12] = tested on: A549; assay: Cytotoxicity against human A549 cells up to 10 uM after 24 hrs by MTT assay; format: functional, cell-based
[13] = tested on: HCT-15; assay: Cell cycle arrest in human HCT15 cells assessed as accumulation at G2/M phase at 50 uM after 24 hrs (reference value: 17%); format: functional
[14] = tested on: SJRH30; assay: Induction of ROS production in human Rh30 cells at 10 uM after 1 to 2 hrs relative to control; format: functional
[15] = tested on: HT-29; assay: Cell cycle arrest in human HT-29 cells assessed as accumulation at G2/M phase at 50 uM after 24 hrs (reference value: 12%); format: functional
[16] = tested on: MCF7; assay: Cell cycle arrest in human MCF7 cells assessed as accumulation at G2/M phase at 10 uM after 24 hrs (reference value: 9%); format: functional
[17] = tested on: SK-OV-3; assay: Induction of apoptosis in human SKOV3 cells assessed as dead cells at IC50 after 24 hrs using Annexin V-PE/7AAD staining by flow cytometry (reference value: 0.7%); format: functional
[18] = tested on: SK-OV-3; assay: Induction of apoptosis in human SKOV3 cells assessed as early apoptotic cells at IC50 after 24 hrs using Annexin V-PE/7AAD staining by flow cytometry (reference value: 6.8%); format: functional
[19] = tested on: SK-OV-3; assay: Induction of ROS production in human SKOV3 cells at IC50 after 3 hrs using DCFDA dye by flow cytometry relative to control; format: functional
[20] = tested on: SK-OV-3; assay: Induction of apoptosis in human SKOV3 cells assessed as apoptotic cells at IC50 after 24 hrs using Annexin V-PE/7AAD staining by flow cytometry (reference value: 9.0%); format: functional
[21] = tested on: SK-OV-3; assay: Cell cycle arrest in human SKOV3 cells assessed as accumulation at S phase at IC50 after 24 hrs using hypo propidium iodide staining by flow cytometry (reference value: 11.4%); format: functional
[22] = tested on: SK-OV-3; assay: Induction of cell morphological changes in human SKOV3 cells assessed as cell shrinkage and development of bubble like blebs on membranes at IC50 after 24 hrs by phase contrast microscope analysis; format: functional, cell-based
[23] = Cytotoxicity against mouse NIH/3T3 cells assessed as cell viability at IC50 after 24 hrs by MTT assay; format: functional, NIH3T3
[24] = tested on: SK-OV-3; assay: Cell cycle arrest in human SKOV3 cells assessed as accumulation at G2/M phase at IC50 after 24 hrs using hypo propidium iodide staining by flow cytometry (reference value: 15.43%); format: functional
[25] = tested on: SK-OV-3; assay: Induction of apoptosis in human SKOV3 cells assessed as live cells at IC50 after 24 hrs using Annexin V-PE/7AAD staining by flow cytometry (reference value: 83.4%); format: functional
[26] = tested on: SK-OV-3; assay: Induction of cell morphological changes in human SKOV3 cells assessed as cells with ruptured cell membranes at IC50 after 24 hrs by phase contrast microscope analysis; format: functional, cell-based
[27] = tested on: SK-OV-3; assay: Cell cycle arrest in human SKOV3 cells assessed as accumulation at G0/G1 phase at IC50 after 24 hrs using hypo propidium iodide staining by flow cytometry (reference value: 72.52%); format: functional

SMILES	pIC50 [1]	pIC50 [2]	pIC50 [3]	pIC50 [4]	other results
O=Cc1cc2ccccc2n(Cc2ccccc2)c1=O	< 4.00	< 4.00	4.50	< 4.00	–
C#CCn1c(=O)c(C=O)cc2cc(Cl)ccc21	< 4.00	< 4.00	< 4.00	< 4.00	–
C#CCn1c(=O)c(C=O)cc2cc(F)ccc21	< 4.00	< 4.00	< 4.00	< 4.00	–
C#CCn1c(=O)c(C=O)cc2cc(C)ccc21	< 4.00	< 4.00	< 4.00	< 4.00	–
C#CCn1c(=O)c(/C=C/C(=O)/C=C(O)/C=C/c2ccc(O)c(OC)c2)cc2cc(OC)ccc21	4.85	4.42	< 4.00	4.69	–
C#CCn1c(=O)c(/C=C/C(=O)/C=C(O)/C=C/c2ccc(O)c(OC)c2)cc2cc(F)ccc21	< 4.00	4.35	4.60	4.39	–
C#CCn1c(=O)c(C=O)cc2ccccc21	< 4.00	< 4.00	< 4.00	< 4.00	–
C#CCn1c(=O)c(/C=C/C(=O)/C=C(O)/C=C/c2ccc(O)c(OC)c2)cc2cc(Cl)ccc21	–	–	–	–	Activity [5]: inactive; Activity [6]: inactive; Activity [7]: inactive; Activity [8]: inactive
O=C(/C=C(O)/C=C/c1cc2ccccc2[nH]c1=O)/C=C/c1cc2ccccc2[nH]c1=O	4.47	4.20	4.50	4.16	–
COc1cc(/C=C/C(O)=C/C(=O)/C=C/c2cc3ccccc3n(Cc3ccccc3)c2=O)ccc1O	–	–	–	–	Activity [9]: inactive; Activity [10]: inactive; Activity [11]: inactive; Activity [12]: inactive
COc1cc(/C=C/C(=O)CC(=O)/C=C/c2ccc(O)c(OC)c2)ccc1O [CURCUMIN]	4.36	4.08	4.49	4.22	Activity [13]: 32%; fold change (FC) [14]: 1.5; Activity [15]: 33%; Activity [16]: 28%
C#CCn1c(=O)c(C=O)cc2cc(OC)ccc21	< 4.00	< 4.00	< 4.00	< 4.00	–
COc1cc(/C=C/C(O)=C/C(=O)/C=C/c2cc3ccccc3[nH]c2=O)ccc1O	–	–	–	–	Activity [9]: inactive; Activity [10]: inactive; Activity [11]: inactive; Activity [12]: inactive
C#CCn1c(=O)c(/C=C/C(=O)/C=C(O)/C=C/c2ccc(O)c(OC)c2)cc2ccccc21	4.72	4.60	4.82	4.67	–
O=Cc1cc2ccccc2[nH]c1=O	< 4.00	< 4.00	< 4.00	< 4.00	–
C=CCn1c(=O)c(/C=C/C(=O)/C=C(O)/C=C/c2ccc(O)c(OC)c2)cc2ccccc21	4.59	–	4.63	4.50	Activity [7]: inactive
C=CCn1c(=O)c(C=O)cc2ccccc21	< 4.00	< 4.00	< 4.00	< 4.00	–
C#CCn1c(=O)c(/C=C/C(=O)/C=C(O)/C=C/c2ccc(O)c(OC)c2)cc2cc(C)ccc21	4.89	4.66	4.44	4.62	Activity [17]: 7.3%; Activity [18]: 2.5%; Activity [19]: 61.5%; Activity [20]: 62.5%; Activity [21]: 19.49%; Activity [22]: Active; Activity [23]: 74.5%; Activity [24]: 25%; Activity [25]: 27.7%; Activity [26]: Active; Activity [27]: 54.43%
